Laboratory results reported in paper PMC6006164, “Natural cyclopeptide RA-V inhibits the NF-κB signaling pathway by targeting TAK1” (Cell Death & Disease, 2018).

Columns and labels:
HEK293T and HeLa cells = assay: MTT assay; assay type: cell-based; conditions: under reporter-assay treatment, high concentrations
Experimental: (§1) Fig. 1 RA-V inhibits TNF-α- and LPS-induced activation of NF-κB. a Chemical structure of RA-V. b RA-V inhibited the NF-κB signaling pathway in a dose-dependent manner. HEK293T or HeLa cells were transfected with the 5 × κB-luciferase and pTK-Renilla reporters. Twenty-four hours after transfection, the cells were incubated with various concentrations of RA-V for 6 h, and then treated with 10 ng/mL TNF-α for 2 h before the luciferase activity assay and MTT assay. c RA-V reduced TNF-α-induced expression of NF-κB target genes. HEK293T or HeLa cells were treated with various concentrations of RA-V for 24 h and stimulated with 10 ng/mL TNF-α for 2 h. The expression of the NF-κB target genes, IL-8, MCP-1, and E-selectin was measured by quantitative RT-PCR and normalized to GADPH expression. d RA-V inhibited TNF-α-induced p65 phosphorylation, IκBα phosphorylation and IκBα degradation. […] The expression of IL-6 was measured. h RA-V inhibited LPS-induced p65 phosphorylation, IκBα phosphorylation. […] The protein expression was measured. i RA-V inhibited LPS-induced IL-6 production. […] The expression of IL-6 was measured.
HEK293T cells (5 × 10^3 cells/well) or HeLa cells (3 × 10^3 cells/well) were seeded in a 96-well plate with 100 μL medium and cultured for 12 h in a CO2 incubator. […] After 4 h, the medium was replaced with 150 μL DMSO, and the optical density was measured at […] (Molecular Devices). […]

IL-8 production = assay: TNF-α-induced IL-8 production, ELISA; assay type: cell-based; conditions: HeLa; RA-V 12 h, 10 ng/mL TNF-α 2 h; ELISA of supernatant; dose-dependent
Experimental: as §1, with “degradation. HEK293T or HeLa cells were incubated with various concentrations of RA-V for 24 h and treated with 10 ng/mL TNF-α for 10 min. The cell lysates were prepared and subjected to western blot analysis with the indicated antibodies. e RA-V inhibited TNF-α-induced IL-8 production.” for “degradation.”

HepG2 xenograft tumors = assay: HepG2 xenograft in nude mice; assay type: in vivo, female athymic nude BALB/c mice
Experimental: Fig. 7 RA-V inhibits tumor growth and the expression of NF-κB target genes in a nude xenograft model. a–d Inhibition of the growth of HCT116 and HepG2 xenograft tumors by RA-V. Female athymic nude BALB/c mice bearing HCT116 (n = 8) or HepG2 (n = 7) xenograft tumors were intravenously injected with various concentrations of RA-V micelles or control micelles every other day. 5-FU (10 mg/kg) group as positive control. Effects of RA-V on the growth curves of subcutaneoue xenografts of HCT116 (a) and HepG2 (b) and effects on the tumor weight in the HCT116 (c) and HepG2 (d) models. e–f Tumors removed were photographed. g–h The expression of the NF-κB target genes, IL-8, MCP-1, and CXCL-1, in HCT116 (g) and HepG2 (h) tumor tissue from vehicle- and various concentrations of RA-V-treated group was determined by quantitative RT-PCR and normalized to GADPH expression. *, p < 0.05; **, p < 0.01; ***, p < 0.001
In total, 2 × 10^6 HCT116 or 3 × 10^6 HepG2 cells were subcutaneously injected into the right dorsal flank of 6- to 8-week-old female athymic nude BALB/c mice. After tumor volumes reached 100 mm^3, the tumor-bearing mice were randomly divided into several groups. The mice bearing HCT116 (n = 8) or HepG2 xenograft tumors (n = 7) were received the intravenous injection of vehicle micelles or various concentrations of RA-V micelles every other day. 5-FU (10 mg/kg) group as positive control. Body weights and tumor volumes were recorded every other day. Tumor volumes were calculated using the following formula: tumor volume (mm^3) = 0.52 × length × width^2. At the end of the experiments, the mice were killed. Tumor xenografts of each mouse were removed and weighed. Part of each tumor tissue was stored at liquid nitrogen for quantitative RT-PCR analysis. […] Serum alanine transaminase(ALT), aspartate transaminase(AST), and creatine kinase(CK) were determined using relevant kits (Nanjing Jiancheng) according to the manufacturer’s specific instructions.

[1] = HepG2, n = 7, RA-V micelles i.v. every other day, vs control

In the case of RA-V, the “antiproliferative effect (MTT)” value (HEK293T and HeLa cells) was “only a slight antiproliferative effect”, the “TNF-α-induced production of IL-8” value (IL-8 production) was “inhibited” and the “tumor growth rate (tumor volume)” value (HepG2 xenograft tumors; [1]) was “significantly reduced”. For the same substance, the tumor weight (HepG2 xenograft tumors; [1]) was “obviously lower” and the “expression of IL-8, MCP-1, and CXCL-1 in tumor tissue” value (HepG2 xenograft tumors; HepG2 xenograft, quantitative RT-PCR) was “remarkable decreased”.
